This assay has as its system TFEB. Description: TFEB nuclear translocation assay, HeLa wt cells. Format: cell-based. The conditions noted are these: Homo sapiens, HeLa, 2 h, 2 hrs compound treatment, Table 1 does not say HeLa wt or TRPML1 KO. On the procedure: For the TFEB nuclear translocation assay, HeLa wt or HeLa TRPML1 KO cells were plated at 2700 cells/well into black-walled, 384-well Cell carrier Ultra tissue culture treated plates in complete media and incubated overnight. The next day, cells are treated for 2 hrs with compounds and incubated at 37° C. Cells were then fixed for 30 minutes at room temperature in 4% final PFA and washed five times with 90 μL PBS. PBS is aspirated from the wells and the cells are blocked with 7.5 μL blocking buffer (1:1 PBS/Odyssey block buffer containing 0.1% triton x-100 and 1% goat serum). After 30-60 minutes of block, 7.5 μL of primary anti-TFEB (rabbit) antibody is added for a final dilution of 1:200 antibody in 15 μL blocking buffer. Plates are incubated overnight at 4° C. The following day, plates are washed again into PBS, 90 μL with 5 washes, all PBS is aspirated from the wells and the cells are incubated for 1 hr in 1:1000 goat-anti rabbit Alexa 488 secondary antibody, also containing 10 μg/mL Hoechst 33342. After the 1 hr room temperature incubation, plates are washed a final time into PBS, sealed with foil and imaged with an automated epifluorescence microscopy (PerkinElmer Operetta CLS). Four different fields were imaged per well using ×20 magnification for DAPI and FITC filter sets. Images were quantified using PerkinElmer Harmony software, briefly: apply flatfield correction (basic/advanced) for input images. Use the Find Nuclei building block with channel set at Hoechst to find the nuclei. Use the Find cytoplasm building block with channel set to Alexa 488 to find the cytoplasm. Use select cell region with Channel set at Alexa 488 and region of interest as Nuclei and define outer border at 0 μm and inner at 45 μm to cover complete nuclei. Use select cell region with Channel set at Alexa 488 and region of interest as ring region and define outer border at −5 μm and inner at 0 μm to define a ring around the nucleus. Use the find calculate intensity parameter to calculate intensity of the nuclear region and the ring region. Define results as Number of nuclei and ratio of A/B where A is Intensity of Nuclei and B is intensity of the ring region.
The compound numbers correspond to the compound numbers above in Tables A or B. Compounds having an activity designated as “++++” provided an AC50 of ≤2.00 μM; compounds having an activity designated as “+++” provided an AC50 of 2.01-8.00 μM; compounds having an activity designated as “++” provided an AC50 of 8.01-9.99 μM; and compounds having an activity designated as “+” provided an AC50 of ≥10.00 μM.

SMILES strings stand for the structures.

Take `C[C@H]1CN(CC2CCN(c3c(F)cccc3NS(=O)(=O)c3ccc(S(=O)(=O)N(C)C)cc3)CC2)[C@@H](C)CO1` [Compound A-862, N4-[2-(4-{[(2S,5S)-2,5-dimethylmorpholin-4-yl]methyl}piperidin-1-yl)-3-fluorophenyl]-N1,N1-dimethylbenzene-1,4-disulfonamide]: the half-maximal activity concentration (AC50) was at most 2 µM.
Under `CP(C)(=O)c1ccc(S(=O)(=O)Nc2cccc(Cl)c2N2CCOCC2)cc1` [Compound A-287, N-[3-chloro-2-(morpholin-4-yl)phenyl]-4-(dimethylphosphoryl)benzene-1-sulfonamide] stands at least 10 µM; under `O=S(=O)(Nc1cc(Cl)ccc1N1CCCC12CCOC2)c1ccc2c(c1)CCC2` (stereo not drawn) [Compound A-346, N-(5-chloro-2-{7-oxa-1-azaspiro[4.4]nonan-1-yl}phenyl)-2,3-dihydro-1H-indene-5-sulfonamide], at most 2 µM; under `O=S(=O)(Nc1ccccc1N1CCN(c2ccc(F)cc2F)CC1)c1ccc(S(=O)(=O)C(F)(F)F)cc1` [Compound A-174, N-{2-[4-(2,4-difluorophenyl)piperazin-1-yl]phenyl}-4-trifluoromethanesulfonylbenzene-1-sulfonamide], 2.01 to 8 µM.
Under `CC1(C)CC2(CCN(c3ccccc3NS(=O)(=O)c3ccc(C4CC4)cc3)CC2)CO1` [Compound A-672, 4-cyclopropyl-N-(2-{3,3-dimethyl-2-oxa-8-azaspiro[4.5]decan-8-yl}phenyl)benzene-1-sulfonamide] stands at most 2 µM; under `C[C@H]1COC[C@H](C)N1CC1CCN(c2c(F)cccc2NS(=O)(=O)c2ccc(S(=N)(=O)N(C)C)cc2)CC1` (single isomer, unassigned) [Compound A-833], at most 2 µM; under `COCC1(F)CCN(c2ccccc2NS(=O)(=O)c2ccc(S(=O)(=O)N(C)C)cc2)CC1` [Compound A-686, N4-[2-[4-fluoro-4-(methoxymethyl)piperidin-1-yl]phenyl}-N1,N1-dimethylbenzene-1,4-disulfonamide], at most 2 µM.
Regarding `COc1cccc(S(=O)(=O)Nc2ccccc2N2CCN(c3ccc(Cl)cc3F)CC2)c1` [Compound A-4, N-{2-[4-(4-chloro-2-fluorophenyl)piperazin-1-yl]phenyl}-3-methoxybenzene-1-sulfonamide], the AC50 is at most 2 µM.
Next, `COc1ccc(S(=O)(=O)Nc2ccccc2N2CCC(c3ccc(F)cc3F)CC2)nc1` [Compound A-118, N-{2-[4-(2,4-difluorophenyl)piperidin-1-yl]phenyl}-5-methoxypyridine-2-sulfonamide]: 2.01 to 8 µM; `CN(C)S(=O)(=O)c1ccc(S(=O)(=O)Nc2ccccc2N2CCC3(CC2)COC(C)(C)C3)c(F)c1` [Compound A-653, N4-(2-{3,3-dimethyl-2-oxa-8-azaspiro[4.5]decan-8-yl}phenyl)-3-fluoro-N1,N1-dimethylbenzene-1,4-disulfonamide]: 2.01 to 8 µM.
Under `C[C@@H]1CN(CC2CCCN(c3c(F)cccc3NS(=O)(=O)c3ccc(S(=O)(=O)N(C)C)cc3)CC2)C[C@H](C)O1` (stereo partly drawn) [Compound A-918, N4-[2-(4-{[(2R,6S)-2,6-dimethylmorpholin-4-yl]methyl}azepan-1-yl)-3-fluorophenyl]-N1,N1-dimethylbenzene-1,4-disulfonamide] stands at most 2 µM; under `O=S(=O)(Nc1ccccc1N1CCC(c2ccc(Cl)cc2F)CC1)c1c(F)cccc1F` [Compound A-81, N-{2-[4-(4-chloro-2-fluorophenyl)piperidin-1-yl]phenyl}-2,6-difluorobenzene-1-sulfonamide], at least 10 µM.
In turn, `CN(C)S(=O)(=O)c1ccc(S(=O)(=O)Nc2ccccc2N2CCC(C)(c3ccc(Cl)cc3F)CC2)cc1` [Compound A-204, N4-{2-[4-(4-chloro-2-fluorophenyl)-4-methylpiperidin-1-yl]phenyl}-N1,N1-dimethylbenzene-1,4-disulfonamide] returned an AC50 of at most 2 µM.
The compound `CCN1CCN(c2c(Cl)cccc2NS(=O)(=O)c2ccc3c(c2)CCC3)C(=O)C1` [Compound A-315, N-[3-chloro-2-(4-ethyl-2-oxopiperazin-1-yl)phenyl]-2,3-dihydro-1H-indene-5-sulfonamide] gave an AC50 of at least 10 µM.
Next, `C[C@@H]1CN(CC2CCN(c3c(NS(=O)(=O)c4ccc(S(=O)(=O)N(C)C)cc4)cccc3C(F)(F)F)CC2)C[C@H](C)O1` [Compound A-788, N4-[2-(4-{[(2R,6S)-2,6-dimethylmorpholin-4-yl]methyl}piperidin-1-yl)-3-(trifluoromethyl)phenyl]-N1,N1-dimethylbenzene-1,4-disulfonamide]: at most 2 µM.
Compound `CN(C)S(=N)(=O)c1ccc(S(=O)(=O)Nc2ccc(F)cc2N2CCC(c3c(F)cccc3F)CC2)cc1` (stereo not drawn) [Compound A-226, 4-({2-[4-(2,6-difluorophenyl)piperidin-1-yl]-4-fluorophenyl}sulfamoyl)-N,N-dimethylbenzene-1-sulfonoimidamide] showed an AC50 of at most 2 µM.
Next, `CN(C)S(=O)(=O)c1ccc(S(=O)(=O)Nc2ccccc2N2CCC(O)(c3ccc(F)cn3)CC2)cc1` [Compound A-209, N4-{2-[4-(5-fluoropyridin-2-yl)-4-hydroxypiperidin-1-yl]phenyl}-N1,N1-dimethylbenzene-1,4-disulfonamide]: at most 2 µM; `CN(C)S(=O)(=O)c1ccc(S(=O)(=O)Nc2ccccc2N2CCC3(CC2)OC(=O)c2cc(F)cnc23)cc1` [Compound A-473, N4-(2-{3-fluoro-5-oxo-5H-spiro[furo[3,4-b]pyridine-7,4′-piperidin]-1′-yl}phenyl)-N1,N1-dimethylbenzene-1,4-disulfonamide]: 2.01 to 8 µM; `Cc1ccc(S(=N)(=O)Nc2ccccc2N2CCC(c3ccc(Cl)cc3F)CC2)cc1` (stereo not drawn) [Compound A-151, N-{2-[4-(4-chloro-2-fluorophenyl)piperidin-1-yl]phenyl}-4-methylbenzene-1-sulfonoimidamide]: 2.01 to 8 µM.
Under `CCN1CCN(c2ccc(Cl)cc2NS(=O)(=O)c2ccc3c(c2)CCC3)CC1` [Compound A-289, N-[5-chloro-2-(4-ethylpiperazin-1-yl)phenyl]-2,3-dihydro-1H-indene-5-sulfonamide] stands at least 10 µM; under `C[C@@H]1CN(CC2CCN(c3ccccc3NS(=O)(=O)c3ccc(S(=O)(=O)N(C)C)cc3)CC2)C[C@H](C)O1` [Compound A-544, N4-[2-(4-{[(2R,6S)-2,6-dimethylmorpholin-4-yl]methyl}piperidin-1-yl)phenyl]-N1,N1-dimethylbenzene-1,4-disulfonamide], at most 2 µM.
Under `O=S(=O)(Nc1ccccc1N1CCC(c2ccc(Cl)cc2F)CC1)c1cc(F)cc(F)c1` [Compound A-91, N-{2-[4-(4-chloro-2-fluorophenyl)piperidin-1-yl]phenyl}-3,5-difluorobenzene-1-sulfonamide] stands at least 10 µM; under `COc1ccc(S(=O)(=O)Nc2ccncc2N2CCC(c3ncc(F)cc3F)CC2)cc1` [Compound A-192, N-{3-[4-(3,5-difluoropyridin-2-yl)piperidin-1-yl]pyridin-4-yl}-4-methoxybenzene-1-sulfonamide], at least 10 µM; under `CN(C)S(=O)(=O)c1ccc(S(=O)(=O)Nc2ccccc2N2CCC(COC(C)(F)F)CC2)cc1` [Compound A-739, N4-(2-{4-[(1,1-difluoroethoxy)methyl]piperidin-1-yl}phenyl)-N1,N1-dimethylbenzene-1,4-disulfonamide], at most 2 µM.
In turn, `CN(C)S(=O)(=O)c1ccc(C(=O)Nc2ccccc2N2CCN(c3ccc(Cl)cc3F)CC2)cc1` [Compound A-11, N-{2-[4-(4-chloro-2-fluorophenyl)piperazin-1-yl]phenyl}-4-(dimethylsulfamoyl)benzamide] registered a concentration at half-maximal activity (AC50) of at most 2 µM.
Under `COCC1(C)CCN(c2ccccc2NS(=O)(=O)c2ccc3c(c2)COC3(C)C)CC1` [Compound A-682, N-{2-[4-(methoxymethyl)-4-methylpiperidin-1-yl]phenyl}-1,1-dimethyl-1,3-dihydro-2-benzofuran-5-sulfonamide] stands 2.01 to 8 µM; under `CN(C(=O)C1(C)CCN(c2ccccc2NS(=O)(=O)c2ccc(S(=O)(=O)N(C)C)cc2)CC1)C(C)(C)C` [Compound A-360, N-tert-butyl-1-{2-[4-(dimethylsulfamoyl)benzenesulfonamido]phenyl}-N,4-dimethylpiperidine-4-carboxamide], at most 2 µM.

A word on the AC50: it is the concentration giving half of the maximal activity seen.

Values taken from patent US20230104936A1, “TRPML MODULATORS” (Casma Therapeutics, Inc., priority 2019, published 2023).
